Data reported in patent US20230026696A1, “TRPV4 RECEPTOR LIGANDS” (UNIVERSITY OF UTAH RESEARCH FOUNDATION, priority 2019, published 2023).
Structures can show the parent of a compound that is named as a salt.

What follows are compounds tested against T1, human TRPV4 (Homo sapiens, UniProt Q9HBA0) (assay: Fluorometric cell-based Ca2+ flux assay, HEK-293 cells stably overexpressing human TRPV4). Conditions: HEK-293 stably overexpressing human TRPV4; agonist GSK1016790A 30 nM.
T1 construct: expressed in transfected cells
How it was run: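 HEK-293 cells stably overexpressing human TRPV4, Fluo 4-loaded, pre-incubated 30 min at 37° C with compound, then stimulated with 30 nM GSK1016790A (final). Max ΔF/s over 1 min, media-corrected, expressed relative to no-antagonist control; IC50 from ≥8 concentrations, ≥3 replicates.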

T1 sequence (Q9HBA0 whole entry): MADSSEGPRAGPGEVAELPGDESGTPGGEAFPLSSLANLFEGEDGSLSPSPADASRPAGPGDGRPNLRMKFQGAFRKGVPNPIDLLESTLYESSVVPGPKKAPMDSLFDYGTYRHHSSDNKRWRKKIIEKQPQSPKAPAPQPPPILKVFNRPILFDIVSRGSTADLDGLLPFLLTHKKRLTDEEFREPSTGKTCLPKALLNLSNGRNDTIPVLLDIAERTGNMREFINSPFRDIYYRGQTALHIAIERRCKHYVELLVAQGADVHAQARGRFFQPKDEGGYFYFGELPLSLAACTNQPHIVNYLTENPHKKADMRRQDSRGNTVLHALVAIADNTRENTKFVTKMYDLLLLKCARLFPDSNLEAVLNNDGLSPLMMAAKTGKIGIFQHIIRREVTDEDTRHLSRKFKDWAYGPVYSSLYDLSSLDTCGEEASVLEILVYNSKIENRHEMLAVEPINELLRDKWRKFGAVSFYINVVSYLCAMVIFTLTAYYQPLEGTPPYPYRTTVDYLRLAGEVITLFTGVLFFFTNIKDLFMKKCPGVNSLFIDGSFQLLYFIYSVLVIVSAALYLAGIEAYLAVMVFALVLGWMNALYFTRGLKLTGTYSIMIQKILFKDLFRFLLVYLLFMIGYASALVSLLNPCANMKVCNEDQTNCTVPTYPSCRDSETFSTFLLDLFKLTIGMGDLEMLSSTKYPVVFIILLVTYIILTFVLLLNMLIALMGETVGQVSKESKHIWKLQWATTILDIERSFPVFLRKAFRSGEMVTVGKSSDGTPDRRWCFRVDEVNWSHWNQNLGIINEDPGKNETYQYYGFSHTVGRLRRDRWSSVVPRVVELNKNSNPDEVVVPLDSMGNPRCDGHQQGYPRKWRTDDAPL

| Structure (SMILES) | IC50 |
| --- | --- |
| COc1ccc(S(=O)(=O)N2CC(CO)(COc3ccc(C#N)c(F)c3)C2)c(Br)c1 [Compound 102, 4-((1-((2-Bromo-4-methoxyphenyl)sulfonyl)-3-(hydroxymethyl)azetidin-3-yl)methoxy)-2-fluorobenzonitrile] | 0.231 µM |
| N#Cc1ccc(OCC2(CNCCCO)CN(S(=O)(=O)c3ccc(Cl)cc3Cl)C2)cc1F [Compound 19, 4-((1-((2,4-Dichlorophenyl)sulfonyl)-3-(((3-hydroxypropyl)amino)methyl)azetidin-3-yl)methoxy)-2-fluorobenzonitrile hydrochloride] | 0.0005 µM |
| CNC(=O)C1(COc2ccc(C#N)cc2)CN(S(=O)(=O)c2ccc(Cl)cc2Cl)C1 [Compound 4, 3-((4-Cyanophenoxy)methyl)-1-((2,4-dichlorophenyl)sulfonyl)-N-methylazetidine-3-carboxamide] | 4.6 µM |
| COC(=O)c1ccc(OCC2(CO)CN(S(=O)(=O)c3ccc(Cl)cc3Cl)C2)cc1 [Compound 90, Methyl 4-((1-((2,4-dichlorophenyl)sulfonyl)-3-(hydroxymethyl)azetidin-3-yl)methoxy)benzoate] | ~5 µM |
| N#Cc1ccc(OCC2(C(=O)O)CN(S(=O)(=O)c3ccc(Cl)cc3Cl)C2)cc1 [Compound 2, 3-((4-Cyanophenoxy)methyl)-1-((2,4-dichlorophenyl)sulfonyl)azetidine-3-carboxylic acid] | ≥ 50 µM |
| COc1cc(C#N)c(F)cc1OCC1(CO)CN(S(=O)(=O)c2ccc(Cl)cc2Cl)C1 [Compound 108, 4-((1-((2,4-Dichlorophenyl)sulfonyl)-3-(hydroxymethyl)azetidin-3-yl)methoxy)-2-fluoro-5-methoxybenzonitrile] | 0.528 µM |
| COc1cc(C#N)c(F)cc1OCC1(CO)CN(S(=O)(=O)c2ccc(C)cc2C#N)C1 [Compound 110, 4-((1-((2-Cyano-4-methylphenyl)sulfonyl)-3-(hydroxymethyl)azetidin-3-yl)methoxy)-2-fluoro-5-methoxybenzonitrile] | 0.241 µM |
| CC(=O)NC1(COc2ccc(C#N)c(F)c2)CN(S(=O)(=O)c2ccc(Cl)cc2Cl)C1 [Compound 53, N-(3-((4-Cyano-3-fluorophenoxy)methyl)-1-((2,4-dichlorophenyl)sulfonyl)azetidin-3-yl)acetamide] | 0.088 µM |
| N#Cc1ccc(OCC2(COP(=O)(O)O)CN(S(=O)(=O)c3ccc(Cl)cc3Cl)C2)cc1F [Compound 14, Sodium (3-((4-cyano-3-fluorophenoxy)methyl)-1-((2,4-dichlorophenyl)sulfonyl)azetidin-3-yl)methyl phosphate] | 0.07 µM |
| Cc1ccc(OCC2(CO)CN(S(=O)(=O)c3ccc(Cl)cc3Cl)C2)cc1 [Compound 92, (1-((2,4-Dichlorophenyl)sulfonyl)-3-((p-tolyloxy)methyl)azetidin-3-yl)methanol] | ~5 µM |
| Cc1ccc(S(=O)(=O)N2CC(CO)(COc3ccc(C#N)c(F)c3)C2)c(Cl)c1 [Compound 82, 4-((1-((2-Chloro-4-methylphenyl)sulfonyl)-3-(hydroxymethyl)azetidin-3-yl)methoxy)-2-fluorobenzonitrile] | > 0.027 µM |
| N#Cc1ccc(OCC2(CNCC3COC3)CN(S(=O)(=O)c3ccc(Cl)cc3Cl)C2)cc1F [Compound 27, 4-((1-((2,4-Dichlorophenyl)sulfonyl)-3-(((oxetan-3-ylmethyl)amino)methyl)azetidin-3-yl)methoxy)-2-fluorobenzonitrile] | 0.001 µM |

The remaining lines, values ahead:

| IC50 | Structure (SMILES) |
| --- | --- |
| 0.1 µM | N#Cc1ccc(OCC2(NC(=O)CO)CN(S(=O)(=O)c3ccc(Cl)cc3Cl)C2)cc1F [Compound 56, N-(3-((4-Cyano-3-fluorophenoxy)methyl)-1-((2,4-dichlorophenyl)sulfonyl)azetidin-3-yl)-2-hydroxyacetamide] |
| 0.0009 µM | CC(O)CNCC1(COc2ccc(C#N)c(F)c2)CN(S(=O)(=O)c2ccc(Cl)cc2Cl)C1 (stereo not shown) [Compound 24, 4-((1-((2,4-Dichlorophenyl)sulfonyl)-3-(((2-hydroxypropyl)amino)methyl)azetidin-3-yl)methoxy)-2-fluorobenzonitrile hydrochloride] |
| 1.09 µM | N#Cc1ccc(OCC2(C(N)=O)CN(S(=O)(=O)c3ccc(Cl)cc3Cl)C2)cc1F [Compound 9, 3-((4-Cyano-3-fluorophenoxy)methyl)-1-((2,4-dichlorophenyl)sulfonyl)azetidine-3-carboxamide] |
| 3 µM | CC(=O)NCC1(COc2ccc(C#N)c(F)c2)CN(S(=O)(=O)c2ccc(Cl)cc2Cl)C1 [Compound 45, N-((3-((4-Cyano-3-fluorophenoxy)methyl)-1-((2,4-dichlorophenyl)sulfonyl)azetidin-3-yl)methyl)acetamide] |
| 0.0003 µM | CC(CO)NCC1(COc2ccc(C#N)c(F)c2)CN(S(=O)(=O)c2ccc(Cl)cc2Cl)C1 (stereo not shown) [Compound 32, 4-((1-((2,4-Dichlorophenyl)sulfonyl)-3-(((1-hydroxypropan-2-yl)amino)methyl)azetidin-3-yl)methoxy)-2-fluorobenzonitrile hydrochloride] |
| 0.0004 µM | C[C@H](O)CNCC1(COc2ccc(C#N)c(F)c2)CN(S(=O)(=O)c2ccc(Cl)cc2Cl)C1 [Compound 31, (S)-4-((1-((2,4-dichlorophenyl)sulfonyl)-3-(((2-hydroxypropyl)amino)methyl)azetidin-3-yl)methoxy)-2-fluorobenzonitrile hydrochloride] |
| 1.2 µM | N#Cc1ccc(OCC2(CO)CN(S(=O)(=O)c3ccc(OC(F)(F)F)cc3Br)C2)cc1F [Compound 105, 4-((1-((2-Bromo-4-(trifluoromethoxy)phenyl)sulfonyl)-3-(hydroxymethyl)azetidin-3-yl)methoxy)-2-fluorobenzonitrile] |
| 0.0087 µM | N#Cc1ccc(OCC2(CN)CN(S(=O)(=O)c3ccc(Cl)cc3Cl)C2)cc1F [Compound 44, 4-((3-(Aminomethyl)-1-((2,4-dichlorophenyl)sulfonyl)azetidin-3-yl)methoxy)-2-fluorobenzonitrile] |
| 0.145 µM | COc1ccc(S(=O)(=O)N2CC(CO)(COc3ccc(C#N)c(F)c3)C2)c(C#N)c1 [Compound 106, 4-((1-((2-Cyano-4-methoxyphenyl)sulfonyl)-3-(hydroxymethyl)azetidin-3-yl)methoxy)-2-fluorobenzonitrile] |
| 0.51 µM | CC1(COc2ccc(C#N)cc2)CN(S(=O)(=O)c2ccc(Cl)cc2Cl)C1 [Compound 1, 4-((1-((2,4-Dichlorophenyl)sulfonyl)-3-methylazetidin-3-yl)methoxy)benzonitrile] |
| 0.008 µM | N#Cc1ccc(OCC2(CNC3COC3)CN(S(=O)(=O)c3ccc(Cl)cc3Cl)C2)cc1F [Compound 26, 4-((1-((2,4-Dichlorophenyl)sulfonyl)-3-((oxetan-3-ylamino)methyl)azetidin-3-yl)methoxy)-2-fluorobenzonitrile] |
| ~3 µM | Cc1cc(OCC2(CO)CN(S(=O)(=O)c3ccc(Cl)cc3Cl)C2)ccn1 [Compound 95, (1-((2,4-Dichlorophenyl)sulfonyl)-3-(((2-methylpyridin-4-yl)oxy)methyl)azetidin-3-yl)methanol] |
| ~5 µM | NC(=O)c1ccc(OCC2(CO)CN(S(=O)(=O)c3ccc(Cl)cc3Cl)C2)cc1 [Compound 93, 4-((1-((2,4-Dichlorophenyl)sulfonyl)-3-(hydroxymethyl)azetidin-3-yl)methoxy)benzamide] |
